Data reported in patent US20260231947A1, “IMPROVED BIOCIDE COMPOSITIONS” (Solugen, Inc., priority 2021, published 2026).
Values after ≈ are worked out from the molar mass of the structure shown. Like-named read-outs stand apart in the source and are kept apart here.

Legend:
[1] = system: General Wild Strain Bacteria; experiment: MIC, Example 2, TTPC and bleach; type: cell-based
Text: The biocides used were tributyl tetradecyl phosphonium chloride (TTPC, BELLACIDE 350) and household bleach.

Wild Strain SRB = experiment: MIC, microtiter plate, wild strain sulfate reducing bacteria; type: cell-based
Protocol: (§1) The ability of an BF to inhibit microorganisms was investigated. Specifically, three bacteria types were tested to compare the MIC of a biocide, a biochelant and IBFs of the present disclosure. The bacteria types utilized were isolated from produced water from the Marcellus shale formation, and identified as (i) general aerobic bacteria identified as Pseudomonas aeruginosa and Enterobacter aggolomerans (ii) Wild strain sulfate reducing bacteria and (iii) acid producing bacteria. General aerobic bacteria aid in the formation of biofilms. Most of these bacteria will be found either floating freely in water (planktonic organisms) or will be attached to various surfaces (sessile organisms). Wild strain Sulfate Reducing Bacteria and Acid Producing Bacteria isolated from the produced fluid was also used. Wild strain Sulfate Reducing Bacteria (WSRB) are the most common anaerobic organisms found in the oil and gas industry. WSRB are an issue as they will reduce sulfate into sulfides which can turn into hydrogen sulfide, souring the fluid in the oil and gas well.
(§2) The bacteria tested were placed in a microtiter plate, where a high throughput test was performed to determine MIC (minimum inhibitor concentration). […] The BE contained 1:1 biocide:biochelant each at 50 ppm.

Wild Strain APB = experiment: MIC, microtiter plate, wild strain acid producing bacteria; type: cell-based
Protocol: as §1, §2

[2] = system: bacteria isolated from produced water from the Marcellus shale formation; experiment: MIC, Example 1, maximum reduction over the three bacteria types; type: cell-based; settings: biocide used in conjunction with biochelants, versus biocide alone
Protocol: as §1, §2

[3] = system: Wild Strain General Bacteria; experiment: MIC, microtiter plate, general aerobic bacteria from produced water; type: cell-based, Pseudomonas aeruginosa and Enterobacter aggolomerans
Protocol: as §1, §2

Staphylococcus aureus = experiment: MIC, Example 3, quaternary ammonium biocides
Text: (§3) The ability of an IBF to inhibit microorganisms was investigated. The biocides used as components of the IBF were quaternary ammonium compounds. […] The bacterial strains tested were Pseudomonas aeruginosa, Staphylococcus aureus, Escherichia coli and Klebsiella pneumoniae.

Klebsiella pneumoniae = experiment: MIC, Example 3, quaternary ammonium biocides
Text: as §3

Escherichia coli = experiment: MIC, Example 3, quaternary ammonium biocides
Text: as §3

Pseudomonas aeruginosa = experiment: MIC, Example 3, quaternary ammonium biocides
Text: as §3

[4] = General Wild Strain Bacteria, read-out: MIC
[5] = Wild Strain APB, IBF 1:1 biocide:biochelant, read-out: MIC
[6] = Wild Strain General Bacteria, IBF 1:1 biocide:biochelant, read-out: MIC

How did the MIC [1, 4] turn out when `CCCCCCCCCCCCCC[P+](CCCC)(CCCC)CCCC.[Cl-]` [Bellacide 350 (TTPC), tributyl tetradecyl phosphonium chloride] was run?
The MIC was 500 µg/mL.

What about the MIC ([1]; General Wild Strain Bacteria, with biochelant, read-out: MIC of the biocide as a component of an IBF) of the same compound?
Its MIC is 15.6 µg/mL.

What does the source list for “tetrakis hydroxymethyl-phosphonium sulfate [75% THPS]”?
MIC (Wild Strain SRB; Wild Strain SRB, IBF 1:1 biocide:biochelant): 1000 ppm; MIC (Wild Strain APB; Wild Strain APB, IBF 1:1 biocide:biochelant): 62.5 ppm; maximum MIC reduction [2]: 97%; MIC ([3]; Wild Strain General Bacteria, IBF 1:1 biocide:biochelant): 1000 ppm

With `O=C(O)[C@@H](O)[C@@H](O)[C@H](O)[C@@H](O)C(=O)O` [GA50, glucaric acid] as the compound, how does the MIC (Staphylococcus aureus) read?
Its MIC is 5000 µg/mL (≈ 23.8 mM).

And the MIC (Wild Strain APB; [5])?
The MIC was 625 µg/mL (≈ 2.97 mM).

What about the MIC (Klebsiella pneumoniae) of the same compound?
Its MIC is 1250 µg/mL (≈ 5.95 mM).

And the MIC (Escherichia coli)?
Its MIC is 625 µg/mL (≈ 2.97 mM).

What about the MIC (Pseudomonas aeruginosa) of the same compound?
Its MIC is 1250 µg/mL (≈ 5.95 mM).

And the MIC [1, 4]?
Its MIC is 2500 µg/mL (≈ 11.9 mM).

And the MIC [3, 6]?
Its MIC is 2500 µg/mL (≈ 11.9 mM).

With `O=[N+]([O-])C(Br)(CO)CO` [10% BRONOPOL, 2-bromo-2-nitro-1,3-propanediol] as the compound, how does the MIC (Wild Strain APB; [5]) read?
Its MIC is 62.5 µg/mL (≈ 0.313 mM).

What about the “maximum MIC reduction” value [2] of the same compound?
Its value is 98%.

What about the MIC [3, 6] of the same compound?
Its MIC is 125 µg/mL (≈ 0.625 mM).

For `O=C(O)[C@H](O)[C@@H](O)[C@H](O)[C@H](O)CO` [G050, gluconic acid], which MIC (Wild Strain SRB) is on record?
Its MIC is 312 µg/mL (≈ 1.59 mM).

What about the MIC (Staphylococcus aureus) of the same compound?
Its MIC is 5000 µg/mL (≈ 25.5 mM).

And the MIC (Wild Strain APB)?
The MIC was 625 µg/mL (≈ 3.19 mM).

What about the MIC (Klebsiella pneumoniae) of the same compound?
Its MIC is 5000 µg/mL (≈ 25.5 mM).

What about the MIC (Escherichia coli) of the same compound?
Its MIC is 5000 µg/mL (≈ 25.5 mM).

What about the MIC (Pseudomonas aeruginosa) of the same compound?
The MIC was 5000 µg/mL (≈ 25.5 mM).

What about the MIC [1] of the same compound?
The MIC was 10000 µg/mL (≈ 51 mM).

What about the MIC [3] of the same compound?
Its MIC is 10000 µg/mL (≈ 51 mM).

For `O=CCCCC=O` [50% Glut, glutaraldehyde], which MIC (Wild Strain APB; [5]) is on record?
The MIC was 500 µg/mL (≈ 4.99 mM).

And the MIC [3, 6]?
Its MIC is 1000 µg/mL (≈ 9.99 mM).
